According to patent publication US20240052133A1, “CHEMICAL RECYLING OF PLASTICS USING IONIC LIQUIDS OR DEEP EUTECTIC SOLVENTS” (THE REGENTS OF THE UNIVERSITY OF CALIFORNIA, priority 2022, published 2024):
Read-outs that look alike come from different tables or passages of the source.

Experiments:
[1] = system: Pseudomonas putida KT2440; test: Pseudomonas putida KT2440 cell growth test (OD600) with different carbon sources; type: cell-based; settings: for cell growth (cell concentration): synthetic solutions matching concentrations in the depolymerized polymers, versus 10 mM glucose control
Protocol: [38, 39, 44, 45]. […] This is likely due to the relatively high [Ch][Lys] concentration, where the [Ch][Lys] concentration is 4 wt %.
Due to the fact that the depolymerized PET/PLA comprises multiple carbon sources (e.g., TPA, LA, and [Ch][Lys]), it is essential to identify the major contributors for the cell growth. Two additional tests were performed. […] The depolymerized products were then diluted 20-fold to prepare the media for cell growth test. A media prepared with only [Ch][Lys] was used as the IL control.
To validate this hypothesis, a second cell growth test was conducted using synthetic TPA and LA as the media. TPA, LA, and TPA/LA mixture were prepared to match the concentrations in the depolymerized polymers. […] It can be concluded that Pseudomonas putida KT2440 is capable of catabolizing LA from depolymerized PLA and [Ch][Lys] as carbon sources, but lacks a natural metabolic pathway to consume TPA. So far, no natural terephthalate degradation pathway has been reported in Pseudomonas putida KT2440. This is consistent with our findings that TPA cannot support cell growth of Pseudomonas putida KT2440. A recent study has shown the success in engineering Pseudomonas putida KT2440 to catabolize TPA for different fermentation products. This opens the door to efficiently utilizing both TPA and LA from the depolymerized PET/PLA.
Pseudomonas putida KT2440 was inoculated as the seed culture at 30° C. overnight. The cell culture was spun down and washed with 3-(N-morpholino)propane sulfonic acid (MOPS) buffer for 5 times to remove the carbon sources. 1% cell resuspension was inoculated into 500 μL growth media in 48 well plates. The growth media included MOPS rich buffer (Teknova, #M2105) and 25 μg/mL Chloramphenicol, added with different carbon sources to support the cell growth (Table 4). Cell growths were monitored continuously at OD600 nm for 72-120 h in the plate reader (Biotek-Synergy, Y-H1) at 30° C., 570 rpm.

[2] = pH of the reaction solution before and after IL catalyzed depolymerization; type: physicochemical; settings: for pH before reaction: IL systems 10 wt % in water, alkaline water adjusted with NaOH; for pH after reaction, PET: after depolymerization reaction of PET; for pH after reaction, PLA: after depolymerization reaction of PLA
Protocol: Hydrolytic depolymerization of PET and PLA involves chain scission of ester linkages, where a carboxyl end group is released. […] We hypothesized that the pH influenced by IL was the major driving force of PET and PLA depolymerization. To test the hypothesis, a set of control experiments were conducted using only water and alkaline water as the solvent. […] (with pH 11.8).

[3] = Hydrolytic depolymerization of PLA using ILs in water
Protocol: (§1) Most of them are conventional imidazolium-based, including the ones that contain halometallates. With the progress in the IL research, economic and biocompatible cholinium-based ILs have attracted high interest.
(§2) […] […] The tube was immersed in a preheated oil bath at a desired temperature. Upon completion of the reaction, the tube was taken out from the oil bath and cooled to room temperature.
(§3) The reaction residue was transferred to a 50 mL falcon tube, where solid residue was recovered through centrifugation. […] The liquid fraction was sampled for product analysis. The depolymerization and product yield are defined as follows:
(§4) Depolymerization=Wsubstrate−W1Wsubstrate100%
(§5) Yield=Wproduct/MproductWsubstrate/Msubstrate×100%
(§6) Then 4 mM sulfuric acid was used as the mobile phase at a flow rate of 1.0 mL/min. The column oven temperature was maintained at 65° C.

[4] = Hydrolytic depolymerization of PET using ILs in water
Protocol: as §1, §2
The reaction residue was transferred to a 50 mL falcon tube, where solid residue was recovered through centrifugation. The solid fraction was washed with 5 mL deionized water three times before being dried in a lyophilizer (Labconco, Kansas City, MO). The liquid fraction was sampled for product analysis. The depolymerization and product yield are defined as follows:
as §4, §5, §6

[5] = Depolymerization of PET/PLA mixtures (1:1 mass ratio) using [Ch][Lys]; settings: 160° C.
From the text: As discussed previously, the current waste management facilities will not completely eliminate the PLA contamination when sorting PET for recycling. […] Chemical recycling is an alternative to mechanical recycling in regard to dealing with PLA contaminants. […] Given its high catalytic activity, [Ch][Lys] was selected as the IL in the reaction. It should be emphasized that [Ch][Lys] is a favorable choice not only because of its high depolymerization efficiency but also because it is economic, biocompatible, less toxic, and environmentally friendly.
The initial set of experiments was carried out at 160° C. for two hours. As shown in FIG. 4A and FIG. 4B, the depolymerization efficiency varied across different IL loadings. […] Meanwhile, the TPA yield turned to be negligible (1.5%) and the LA yield was merely 40.9%. The reasons are manifold.
Although [Ch][Lys] is considered as cost-competitive compared to other conventional ILs, IL usage is often the major cost contributor in the process economics. In order to explore the way to reduce IL loading, a set of experiments was conducted by increasing the reaction time from 2 h to 6 h. Overall, reaction time extension improved both depolymerization and product yields at low IL loadings (FIG. 4A, FIG. 4B and FIG. 4C). […].
The depolymerization reaction of polyesters were conducted in a 15 mL pressure tube (Ace Glass Inc., Vineland, NJ) at […] for one hour. […] The tube was immersed in a preheated oil bath at a desired temperature. Upon completion of the reaction, the tube was taken out from the oil bath and cooled to room temperature.
as §3, §4, §5
Terephthalic acid (TPA) and lactic acid (LA) were measured on a Thermo Scientific Ultimate 3000 HPLC (Waltham, MA, USA) equipped with a Bio-Rad Aminex HPX-87H column (300×7.8 mm, Hercules, CA, USA) and a Refractive Index (RI) detector. Then 4 mM sulfuric acid was used as the mobile phase at a flow rate of 1.0 mL/min. The column oven temperature was maintained at 65° C.

[6] = cited from earlier work
[7] = 130° C., 2 hours, 10% IL in water
[8] = 160° C., 20% [Ch][Lys] loading, 6 hours
[9] = 180° C., 2 hours, 10% IL in water
[10] = 90 wt % IL loading (no water), 2 h

## CC(O)C(=O)O (stereo not drawn) [LA, lactic acid]
[1]
  cell growth (cell concentration): higher than glucose control

## C[N+](C)(C)CCO.C[N+](C)(C)CCO.C[N+](C)(C)CCO.O=P([O-])([O-])[O-] [[Ch]3[Phos], cholinium phosphate]
[2]
  pH before reaction: 12.7
  pH after reaction, PET: 7.7
  pH after reaction, PLA: 8.1

## C[N+](C)(C)CCO.NCCCC[C@H](N)C(=O)[O-] [[Ch][Lys], cholinium lysinate]
[3]; [7]
  LA yield (product yield from PLA): 39.3%
  depolymerization efficiency of PLA: 40.2%
[3]; [8]
  depolymerization of PLA: Up to 100%
[2]
  pH before reaction: 11.8
  pH after reaction, PET: 11.0
  pH after reaction, PLA: 11.1
[4]; [8]
  depolymerization of PET: Up to 100%
[4]; [9]
  TPA yield (product yield from PET): 44.5%
  depolymerization efficiency of PET: 52.7%
[1]; media prepared with only [Ch][Lys] (IL control)
  cell growth: contributor to the cell growth
[5]; 10 wt % IL loading, 2 h
  depolymerization efficiency of PET/PLA mixture: 50.8%
[5]; 45 wt % IL loading, 2 h
  LA yield from PET/PLA mixture: 93.8%
  TPA yield from PET/PLA mixture: 79.6%
[5]; 60 wt % IL loading, 2 h
  LA yield from PET/PLA mixture: 53.1%
  TPA yield from PET/PLA mixture: 77.2%
  depolymerization efficiency of PET/PLA mixture: 99.5%
[5]; [10]
  LA yield from PET/PLA mixture: 40.9%
  TPA yield from PET/PLA mixture: 1.5%
  depolymerization efficiency of PET/PLA mixture: 91.5%
[5]; 90 wt % IL loading, 6 h
  LA yield from PET/PLA mixture, change versus 2 h: decreased by half
  TPA yield from PET/PLA mixture: 1.6%
  depolymerization of PET/PLA mixture: 97.1%

## CC(=O)[O-].CCn1cc[n+](C)c1 [[Emim][Ac], 1-ethyl-3-methylimidazolium acetate]
[2]
  pH before reaction: 7.1
  pH after reaction, PET: 6.8
  pH after reaction, PLA: 7.2

## C[N+](C)(C)CCO.O=C([O-])[C@H](O)[C@@H](O)[C@H](O)[C@H](O)CO [[Cholinium][Gluconate], cholinium gluconate]
[4]; another experiment, PET depolymerization
  TPA yield higher over [Ch][Lys]: 100%

## CCn1cc[n+](C)c1.[Cl-] [[Emim]Cl, 1-ethyl-3-methylimidazolium chloride]
[2]
  pH before reaction: 6.4
  pH after reaction, PET: 4.5
  pH after reaction, PLA: 3.2

## O [Water]
[2]
  pH before reaction: 7.6
  pH after reaction, PET: 3.4
  pH after reaction, PLA: 3.4

## O=C(O)c1ccc(C(=O)O)cc1 [TPA, terephthalic acid]
[6]; acidic pH
  solubility in water: insoluble
[6]; alkaline conditions
  solubility in water: water soluble
[1]
  cell growth (cell concentration): No cell growth was observed
